Molecules are shown by their SMILES.

The target in one test is Accfib (Agkistrodon contortrix contortrix, UniProt P28891). The test can be described thus: biochemical.
For a further test, the target named is T1, thermolysin (Bacillus thermoproteolyticus, UniProt P00800).
T1 sequence (P00800 233-548): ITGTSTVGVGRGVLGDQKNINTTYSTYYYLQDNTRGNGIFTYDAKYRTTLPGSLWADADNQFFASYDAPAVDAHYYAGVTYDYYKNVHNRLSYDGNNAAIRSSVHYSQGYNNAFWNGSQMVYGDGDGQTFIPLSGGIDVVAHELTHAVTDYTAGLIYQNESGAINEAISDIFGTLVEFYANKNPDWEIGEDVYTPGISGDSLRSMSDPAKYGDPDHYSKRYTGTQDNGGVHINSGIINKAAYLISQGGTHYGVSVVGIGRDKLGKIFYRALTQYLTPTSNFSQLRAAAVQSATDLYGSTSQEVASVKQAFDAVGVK
The settings on record: cited from earlier work.

Chain of Accfib (P28891 whole entry, looked up): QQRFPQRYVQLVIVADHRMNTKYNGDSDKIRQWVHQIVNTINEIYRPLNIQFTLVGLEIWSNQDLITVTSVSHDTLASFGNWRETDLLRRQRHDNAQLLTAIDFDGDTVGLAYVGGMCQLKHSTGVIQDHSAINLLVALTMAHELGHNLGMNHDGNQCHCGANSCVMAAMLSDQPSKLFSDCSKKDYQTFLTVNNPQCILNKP

Turning to `CC(C)CC(C(=O)NO)C(=O)N[C@@H](C)C(=O)NCC(N)=O` (stereo partly drawn) [Zincov, 2-(N-hydroxycarboxamido)-4-methylpentanoyl-L-alanyl-glycine amide], the Ki at Accfib is 16 mM; on thermolysin it was 0.00048 mM.

Broadly, the Ki is the equilibrium dissociation constant of an inhibitor or competing ligand from its target.

The record behind these values is US5260060A, “Fibrinolytic enzymes” (priority 1991, dated 1993).
